# Laboratory results taken from ChEMBL document CHEMBL2029250 (Bioorg Med Chem Lett, 2012).
# The source made the active and inactive calls. The calls are words filed in the database; no cut-off is given here.
# How the values were obtained:
# [1] = target: T1, Peroxisome proliferator-activated receptor alpha (Homo sapiens, UniProt Q07869); assay: Binding affinity to GST-tagged human PPARalpha by TR-FRET analysis
# T1 sequence (Q07869 whole entry): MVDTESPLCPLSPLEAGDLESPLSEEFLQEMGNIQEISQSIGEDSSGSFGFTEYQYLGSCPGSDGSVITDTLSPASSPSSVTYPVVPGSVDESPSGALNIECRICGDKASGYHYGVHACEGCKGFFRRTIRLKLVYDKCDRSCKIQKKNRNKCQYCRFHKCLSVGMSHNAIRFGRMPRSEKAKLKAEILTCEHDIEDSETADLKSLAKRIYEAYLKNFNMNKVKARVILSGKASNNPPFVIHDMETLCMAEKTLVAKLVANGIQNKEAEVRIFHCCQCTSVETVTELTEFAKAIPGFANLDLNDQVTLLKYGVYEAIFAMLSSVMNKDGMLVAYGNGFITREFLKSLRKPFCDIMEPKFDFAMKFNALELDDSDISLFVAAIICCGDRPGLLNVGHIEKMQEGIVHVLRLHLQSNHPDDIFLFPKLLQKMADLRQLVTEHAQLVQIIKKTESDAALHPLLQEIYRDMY
# [2] = target: T2, Peroxisome proliferator-activated receptor gamma (Homo sapiens) (UniProt P37231); assay: Transactivation of human PPARgamma expressed in african green monkey CV1 cells at 30 uM by luciferase reporter gene assay relative to […]; type: cell-based; settings: CV-1
# T2 sequence (whole entry): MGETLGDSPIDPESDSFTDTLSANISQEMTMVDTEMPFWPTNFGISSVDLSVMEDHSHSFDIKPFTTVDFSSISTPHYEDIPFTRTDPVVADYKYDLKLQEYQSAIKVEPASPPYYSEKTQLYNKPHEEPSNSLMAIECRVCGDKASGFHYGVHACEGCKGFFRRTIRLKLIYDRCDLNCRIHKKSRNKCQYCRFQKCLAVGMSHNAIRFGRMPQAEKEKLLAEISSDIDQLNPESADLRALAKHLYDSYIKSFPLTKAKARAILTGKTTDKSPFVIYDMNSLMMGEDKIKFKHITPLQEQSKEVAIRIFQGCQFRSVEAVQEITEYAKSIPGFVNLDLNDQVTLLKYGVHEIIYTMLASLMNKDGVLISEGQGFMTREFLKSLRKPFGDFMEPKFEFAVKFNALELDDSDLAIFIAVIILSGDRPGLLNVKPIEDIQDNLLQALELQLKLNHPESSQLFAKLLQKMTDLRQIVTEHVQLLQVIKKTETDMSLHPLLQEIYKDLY
# [3] = target: T1, Peroxisome proliferator-activated receptor alpha; assay: Transactivation of human PPARalpha expressed in african green monkey CV1 cells by luciferase reporter gene assay; type: cell-based, CV-1
# [4] = target: T3, Peroxisome proliferator-activated receptor gamma (Homo sapiens, UniProt P37231); assay: Transactivation of human PPARgamma expressed in african green monkey CV1 cells by luciferase reporter gene assay; type: cell-based, CV-1
# T3 sequence (P37231 whole entry): T2 sequence (whole entry)
# [5] = target: T4, Peroxisome proliferator-activated receptor delta (Homo sapiens, UniProt Q03181); settings: cv-1
# T4 sequence (Q03181 whole entry): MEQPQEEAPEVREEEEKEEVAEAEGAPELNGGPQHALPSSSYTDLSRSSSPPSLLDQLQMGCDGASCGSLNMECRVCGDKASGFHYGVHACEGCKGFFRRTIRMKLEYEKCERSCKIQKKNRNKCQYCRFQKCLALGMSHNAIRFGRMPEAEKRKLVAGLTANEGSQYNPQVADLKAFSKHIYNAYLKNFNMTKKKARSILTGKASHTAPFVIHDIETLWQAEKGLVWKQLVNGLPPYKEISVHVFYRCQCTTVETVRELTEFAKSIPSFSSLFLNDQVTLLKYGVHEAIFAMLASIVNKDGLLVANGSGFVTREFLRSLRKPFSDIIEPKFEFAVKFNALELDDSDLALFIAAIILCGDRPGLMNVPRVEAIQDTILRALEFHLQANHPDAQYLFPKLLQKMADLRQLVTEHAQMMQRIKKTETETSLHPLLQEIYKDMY
# [6] = target: T5, Peroxisome proliferator-activated receptor alpha (Homo sapiens) (UniProt Q07869); assay: Transactivation of human PPARalpha expressed in african green monkey CV1 cells at 30 uM by luciferase reporter gene assay relative to Wy14643; type: cell-based; settings: CV-1
# T5 sequence (whole entry): T1 sequence (Q07869 whole entry)
# [7] = target: T3, Peroxisome proliferator-activated receptor gamma
# 3T3-L1 [8] = assay: Induction of preadipocyte differentiation in mouse 3T3L1 cells assessed as increase in lipid droplet accumulation at 10 uM Oil Red O staining relative to control; type: functional, cell-based
# HepG2 [9] = assay: Increase in ACS mRNA expression in human HepG2 cells at 10 uM; type: functional, cell-based
# HepG2 [10] = assay: Increase in CPT1 mRNA expression in human HepG2 cells at 10 uM; type: functional, cell-based
# 3T3-L1 [11] = assay: Induction of preadipocyte differentiation in mouse 3T3L1 cells assessed as […] in lipid droplet accumulation at 10 uM Oil Red O staining; type: functional, cell-based
# [12] = target: T6, Peroxisome proliferator-activated receptor delta (Homo sapiens) (UniProt Q03181); settings: CV-1, 30 uM
# T6 sequence (whole entry): T4 sequence (Q03181 whole entry)
Compound,IC50 [1] [µM],Emax [2] [%],EC50 [3] [µM],EC50 [4] [µM],EC50 [5],Emax [6] [%],IC50 [7] [µM],Activity (3T3-L1 [8]),Activity (HepG2 [9]),Activity (HepG2 [10]),Activity (3T3-L1 [11]),Emax [12] [%]
COc1ccc(/C=C/c2cc(O)c(C/C=C(\C)CCC=C(C)C)c(O)c2)cc1,2.5,66,19,14,Not Active,63,0.63,–,–,–,–,–
CC(C)=CCC/C(C)=C/Cc1c(O)cc(/C=C/c2ccccc2)cc1O [AMORPHASTILBOL],1.52,83,12,5,Not Active,66,0.85,Active,Active,Active,–,–
CC(C)=CCC/C(C)=C/Cc1c(O)cc(/C=C/c2cc(F)cc(F)c2)cc1O,2.08,–,–,7,Not Active,–,0.9,–,–,–,–,–
CC(C)=CCC/C(C)=C/Cc1c(O)cc(/C=C/c2ccoc2)cc1O,2.03,98,6,5,Not Active,87,0.65,–,Active,–,Active,34
CC(C)=CCC/C(C)=C/Cc1c(O)cc(/C=C/c2ccc(O)cc2)cc1O,1.21,–,8,8,Not Active,–,0.11,–,–,–,–,–
CC(C)=CCC/C(C)=C/Cc1c(O)cc(/C=C/c2cccc(C(F)(F)F)c2)cc1O,1.21,–,4,5,Not Active,–,0.53,–,–,Active,Active,–
CC(C)=CCC/C(C)=C/Cc1c(O)cc(/C=C/c2ccc(C(F)(F)F)cc2)cc1O,3.33,–,–,–,Not Active,–,8.1,–,–,–,–,–
CC(C)=CCC/C(C)=C/Cc1c(O)cc(/C=C/c2ccc(Cl)cc2)cc1O,7.47,–,–,–,Not Active,–,0.54,–,–,–,–,–
CC(C)=CCC/C(C)=C/Cc1c(O)cc(/C=C/c2ccc(C#N)cc2)cc1O,3.47,41,20,–,Not Active,54,1.2,–,–,–,–,–
CC(C)=CCC/C(C)=C/Cc1c(O)cc(/C=C/c2ccc(F)cc2)cc1O,2.48,68,6,11,Not Active,88,2.32,–,–,–,–,17
CC(C)=CCC/C(C)=C/Cc1c(O)cc(/C=C/c2ccsc2)cc1O,5.41,68,14,6,Not Active,56,1.01,–,–,–,–,–
CC(C)=CCC/C(C)=C/Cc1c(O)cc(/C=C/c2ccc(C=O)cc2)cc1O,2.82,27,–,–,Not Active,35,0.89,–,–,–,–,–
